# Reference: patent publication US20240139216A1, “STABLE ORAL CANNABIDIOL COMPOSITIONS” (CARDIOL THERAPEUTICS INC., priority 2020, published 2024)
# Key:
# CB2 receptor = CB2 receptor (Homo sapiens, UniProt P34972); conditions: Proc Natl Acad Sci USA 2008; 105(26):9099-104; cited from earlier work
# Solubility of CBD in BCP = assay type: physicochemical; conditions: in 1 mL of BCP
# Protocol: For example, at least 300 mg of CBD can be dissolved in 1 mL of BCP. The enhanced stability of the CBD provides a composition with an acceptable shelf life and which can provide consistency in dosing and enhanced safety.
# CB2 receptor, sequence (P34972 whole entry): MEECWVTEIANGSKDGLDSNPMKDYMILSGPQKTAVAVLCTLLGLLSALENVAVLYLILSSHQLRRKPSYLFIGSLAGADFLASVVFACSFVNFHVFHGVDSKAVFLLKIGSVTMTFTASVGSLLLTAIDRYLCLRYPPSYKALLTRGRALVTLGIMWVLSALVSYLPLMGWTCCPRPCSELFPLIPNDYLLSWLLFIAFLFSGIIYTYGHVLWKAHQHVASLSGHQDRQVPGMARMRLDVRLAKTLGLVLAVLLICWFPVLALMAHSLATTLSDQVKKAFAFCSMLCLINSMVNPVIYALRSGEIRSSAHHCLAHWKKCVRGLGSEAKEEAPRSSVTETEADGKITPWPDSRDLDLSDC
SMILES,binding to the CB2 receptor (CB2 receptor),functional activity at the CB2 receptor (CB2 receptor),amount of CBD that can be dissolved in BCP (Solubility of CBD in BCP)
"C=C1CC/C=C(\C)CC[C@@H]2[C@@H]1CC2(C)C (relative stereo) [β-caryophyllene, trans-(1R,9S)-8-Methylene-4,11,11-trimethylbicyclo[7.2.0]undec-4-ene]",selectively binds to the CB2 receptor,functional CB2 agonist,–
"C=C(C)[C@@H]1CCC(C)=C[C@H]1c1c(O)cc(CCCCC)cc1O [CBD, cannabidiol]",–,–,at least 300 mg
